Values of other authors, collected in patent publication US9687433B2, “Anhydrous depigmenting compositions comprising phenolic compounds” (Ecstasy LLC, priority 2015, dated 2017).

Conditions: degraded to hydroquinone

## Oc1ccc(OC2CCCCO2)cc1 (stereo not shown) [deoxyarbutin, 4-[(tetrahydro-2H-pyran-2-yl)oxy] phenol]
  stability in aqueous solutions: thermolabile and acid sensitive
